Assay results taken from paper PMC11623267, “Inhibitors of malaria parasite cyclic nucleotide phosphodiesterases block asexual blood-stage development and mosquito transmission” (Science Advances, 2024).
Where two headings read alike, the source gives them in different places.

Tests used:
P. falciparum 3D7 = assay: Ex vivo 72-hour SYBR Green assay, 3D7 control (Uganda); type: cell-based, Plasmodium falciparum; details: Ugandan ex vivo assay control; read-out: EC50 lab strain 3D7
Method: (§1) Samples were delivered to the adjacent IDRC laboratory at Tororo District Hospital or transported by car from Masafu Hospital on the day of collection for storage of blood spots on filter paper (for isolation of nucleic acids) and initiation of ex vivo culture of malaria parasites. […] Before assay, 10 mM antimalarial stock compounds were diluted as necessary in DMSO and stored at −20°C. […] Compounds were serially diluted threefold in a 96-well assay plate in complete medium to a final volume of 50 μl, in columns 1 to 10, with concentrations optimized to capture full dose-response curves. Column 11 contained compound-free controls, while column 12 contained uninfected human RBC controls. Parasite culture (150 μl) was added to columns 1 to 11 of the assay plate with a final volume of 200 μl per well, 0.2% parasitemia, and 2% hematocrit. […] Thawed plates were incubated with SYBR Green lysis buffer for 1 hour in the dark as previously reported ([62]). Fluorescence was quantified using a BMG Fluostar Optima plate reader at an excitation of 485 nm and an emission of 530 nm, and data were plotted using GraphPad Prism 7. The data were curve fit with a variable slope function to estimate IC50 values. For each isolate, a Z′ factor to assess assay quality was calculated from positive controls (eight drug-free wells) and negative controls (eight parasite-free, red cell control wells). Z′ values over 0.5 were considered good assays, but each curve was also examined by eye for suitability. Some assays with Z′ below 0.5 may be considered valid depending on factors such as the SE of the curve-fit IC50.

P. falciparum Dd2 = assay: Ex vivo 72-hour SYBR Green assay, Dd2 control (Uganda); type: cell-based, Plasmodium falciparum; details: Ugandan ex vivo assay control; read-out: EC50 lab strain Dd2
Method: as §1

P. falciparum Dd2-B2 = assay: 72-hour flow cytometry EC50 assay, Dd2-B2 parental line; type: cell-based, Plasmodium falciparum; details: Plasmodium falciparum, DD2, read-out: EC50 Dd2-B2 parental line
[1] = tested on: P. falciparum NF54-HGL stage V gametocytes fed to A. stephensi mosquitoes; assay: SMFA dose response (luminescence); type: in vivo, Plasmodium falciparum
Method: Compounds were diluted in DMSO and then in culture medium (RPMI 1640 supplemented with 367 μM hypoxanthine, 25 mM Hepes, 25 mM sodium bicarbonate, and 10% human type A serum) to achieve a final DMSO concentration of 0.1%. Compounds were incubated with stage V gametocytes from the P. falciparum NF54-HGL reporter strain ([60]) for 48 hours at 37°C in Eppendorf tubes. Subsequently, parasites were pelleted by centrifugation (20 s at 20,000g) and resuspended in human type A serum containing diluted compound (final DMSO concentration of 0.1%) and human type O RBCs to achieve a hematocrit of 50%. This blood meal was then fed to 3- to 5-day-old A. stephensi mosquitoes [Sind-Kasur Nijmegen strain ([61])] for 10 min. Following feeding, unfed mosquitoes were removed, and mosquitoes were maintained at 26°C and 70 to 80% relative humidity. Eight days after feeding, oocyst intensity and prevalence were assessed by luminescence measurement of individual mosquitoes as described ([60]). All conditions were tested in duplicate, and for each replicate, a total of 24 mosquitoes were analyzed. IC50 values were estimated by fitting a four-parameter Hill model to the data using least squares to find the best fit. Controls included vehicle (0.1% DMSO) and 10 μM DHA.

[2] = tested on: P. falciparum (clone 3D7); assay: Parasite reduction ratio (PRR) assay; type: cell-based, Plasmodium falciparum
Method: The in vitro killing profile of compounds was determined by monitoring the ability of parasites to recover following treatment with a compound of interest using a previously reported approach ([50]), which allowed calculation of the PRR ([51]). […] To quantify the number of viable parasites following treatment, four independent sets of threefold serial dilutions were performed on each sample, which were assayed for the presence or absence of parasites after 28 days using the LDH assay, and the number of viable parasites was determined by the number of wells showing growth. PRR and PCT99.9% were calculated as previously reported ([50]).

SMILES | EC50 (P. falciparum 3D7) [µM] | EC50 (P. falciparum Dd2) [µM] | EC50 (P. falciparum Dd2-B2) [µM] | IC50 ([1]; read-out: SMFA IC50 infection (transmission) prevalence, 48 hours incubation; oocysts 8 days after feeding) [µM] | IC50 ([1]; read-out: SMFA IC50 infection (transmission) prevalence; 48 hours incubation; oocysts 8 days after feeding) [µM] | IC50 ([1]; read-out: SMFA IC50 oocyst (transmission) intensity, 48 hours incubation; oocysts 8 days after feeding) [µM] | IC50 ([1]; read-out: SMFA IC50 oocyst (transmission) intensity; 48 hours incubation; oocysts 8 days after feeding) [µM] | Lag phase ([2]; 10× EC50, 3D7) [h] | Log PRR ([2]; 10× EC50, 3D7) | PCT99.9% (hours taken to kill 99.9% of the parasites) ([2]; 10× EC50, 3D7) [h] | Slope ([2]; 10× EC50, 3D7 killing profile) | Killing profile ([2]; 10× EC50, faster than pyrimethamine, slower than chloroquine)
CC(C)c1[nH]nc2c(=O)[nH]c(Cc3ccccc3F)nc12 [SAL-0010042] | 0.132 | 0.115 |  |  |  |  |  |  |  |  |  | 
CC(C)c1n[nH]c2c(=O)[nH]c(Cc3ccc(F)cc3F)nc12 [SAL-0010003] |  |  | 0.304 | 0.116 | 0.116 | 0.0673 | 0.067 | 0 | 3.11 | 47.1 | −0.0647 ± 0.0047 | fast/moderate killing profile
